# Measured values reported in patent US9440901B2, “Method for producing reduced coenzyme Q10” (KANEKA CORPORATION, priority 2012, dated 2016).
# Assays:
# [1] = solubility of the crystal forms of reduced coenzyme Q10; type: physicochemical; settings: compared to Form I crystal
# [2] = background statement; cited from earlier work
SMILES,solubility compared with conventional reduced coenzyme Q10 crystals (Form I) [1],oral absorbability compared to oxidized coenzyme Q10 [2]
"COc1c(O)c(C)c(C/C=C(\C)CC/C=C(\C)CC/C=C(\C)CC/C=C(\C)CC/C=C(\C)CC/C=C(\C)CC/C=C(\C)CC/C=C(\C)CC/C=C(\C)CCC=C(C)C)c(O)c1OC [Form II, reduced coenzyme Q10]",lower solubility,
COc1c(O)c(C)c(C/C=C(\C)CC/C=C(\C)CC/C=C(\C)CC/C=C(\C)CC/C=C(\C)CC/C=C(\C)CC/C=C(\C)CC/C=C(\C)CC/C=C(\C)CCC=C(C)C)c(O)c1OC [reduced coenzyme Q10],,high oral absorbability
